Results: patent US20100278847A1, “MUTUALLY SUPPRESSIVE GENE/INHIBITOR COMBINATIONS FOR NON-ANTIBIOTIC SELECTION OF RECOMBINANT STRAINS” (priority 2007, published 2010)

Legend:
DH5α/pFab = experiment: Cell viability, SYTOX green staining flow cytometry; assay type: cell-based, E. coli; conditions: 0.5-2 μM triclosan, overnight culture
Protocol: DH5α/pFab were grown overnight in the absence or presence of 0.5-2 μM triclosan and subjected to SYTOX green staining flow cytometry, as previously described (Roth et al. 1997). DH5α/pUC19 was included as a control for green fluorescence of live and heat-treated dead cells. Samples were excited with a 488 nm air-cooled argon ion laser in the CyFlow SL flow cytometer (Partec GmbH). Threshold settings were enabled on forward scatter to exclude cell debris. The forward and side scatter dot plot was used to identify and gate cell populations. Fluorescence was measured at 520 nm Viable and dead cell populations were counted using the Partec FloMax software version 2.4e.

DH5α = experiment: Growth rate from exponential phase (OD550 over time); assay type: cell-based, E. coli; conditions: media containing 0-2 μM triclosan
Protocol: Growth rate was calculated from the exponential phase of growth, which was monitored as increased OD550 over time by the VERSAmax spectrophotometer (Molecular Devices). An overnight culture (16 h), standardized by OD550 to yield approximately 7×10^5 cfu/ml, was grown in 200 μl volumes per well in a 96-well plate for 24 h with agitation for 5 s every 5 min, when OD550 readings were taken. Triclosan dissolved in DMSO was added to give 0-2 μM Triclosan and 1% DMSO final concentrations.

[1] = cited from earlier work

## Oc1cc(Cl)ccc1Oc1ccc(Cl)cc1Cl [triclosan]
DH5α/pFab
  Proportion of green fluorescent (dead) cells in DH5α/pFab culture: decreased with increasing triclosan concentrations
DH5α
  Triclosan concentration at which growth rates of pUCFA and pFab clones were highest: 1 μM
[1]
  Solubility in water: poor solubility in water
